From patent publication US6653319B1, “Pharmaceutical formulation for poorly water soluble camptothecin analogues” (University of Kentucky Research Foundation, priority 2001, dated 2003)
Values after ≈ are worked out from the molar mass of the structure shown. “Also recorded” adds a separate entry of the source.

What was measured:
[1] = type: physicochemical
Method: A successful pharmaceutical formulation with a supersaturated drug concentration requires a physical stability with respect to drug precipitation. In our first attempt, 20-25 mg/mL of DB-67 was loaded in DMSO because of the drug's high solubility in this solvent. The dissolved DB-67 was then added slowly to a 20% (w/v) SBE-CD aqueous solution by a volume ratio of 1:9 to achieve a final drug concentration of 2 mg/mL. The dilution rate was maintained at 0.10 mL/min. […] A proper control of the release pattern (local or uniform) and rate of DB-67 into the dilution medium is therefore critical to the success of this type of formulation approach.
As described above, a slow and uniform release of DB-67 into a dilution medium may be accomplished by employing a chemical approach, namely by converting the E-ring opened DB-67 (Species II, see FIG. 1), which is highly water-soluble, to the neutral E-ring closed DB-67 (Species I) in a controlled fashion. […] Accordingly, 20 mg/mL of DB-67 was loaded in a sodium hydroxide solution with NaOH concentration maintained at twice that of the drug concentration. The prepared DB-67 alkaline aqueous solution was passed through a 0.2 μm filter before it was added slowly (0.11 mL/min) into 20% (w/v) acidic SBE-CD solution by a volume ratio of 1:9. In order to completely neutralize DB-67, HCl was present in the dilution solution in an amount equal to the amount of NaOH in the DB-67 alkaline solution. A small amount of acetate buffer (5 mM) was also included in the dilution medium to control the solution pH to about 4 in order to facilitate a timely conversion from the E-ring opened DB-67 to its E-ring closed counterpart.
Shortly after the lyophilization, the lyophilized sample was reconstituted and the stability of the reconstituted solution was examined following the same procedure as described above.
The precipitation profiles of DB-67 solutions containing other solubilizing agents such as liposomes and an acidic aqueous cosolvent solution comprising an equal volume mixture of ethanol and cremophor, prepared as described in Examples 3 and 4, respectively, were evaluated.

[2] = Solubility method to determine complex formation constant with SBE-CD; type: physicochemical
Method: (§1) To understand the complexation mechanisms behind this solubilization effect, a solubility method was employed to determine the formation constant between a camptothecin analogue and a cyclodextrin derivative. In the solubility experiment, the solution pH was controlled below 4.6 with a 30 mM citrate buffer.
(§2) In the limit of [CD]>>So, the relevant formation constants can be expressed as: […]
(§3) where So is the solubility in the absence of cyclodextrins, Kf^1:1 and Kf^1:2 are the 1:1 and 1:2 complex formation constants, and [CD] is concentration of cyclodextrin. A linear least-squares fit of the data for SBE-CD as shown in FIG. 3 yields the complex formation constant of Kf^1:1=8.5±0.2×10^3M^−1(r^2=0.999). […] The inability for SBE-CD to form 1:2 complexes with DB-67 apparently arises from the presence of an average of seven negatively charged sulfobutyl ether groups in a SBE-CD molecule preventing the approach of two SBE-CDs to each other to form 1:2 complexes. A least-squares fit of the data for HP-CD as shown in FIG. 3 according to Equation 1 yields the 1:1 and 1:2 complex formation constants of Kf^1:1=5.8±0.2×10^3M^−1 and […]±0.2 ×10^4M^−1(r^2=1.000).

[3] = Solubility method to determine complex formation constants with HP-CD; type: physicochemical
Method: as §1, §2, §3

[4] = compared with FDA approved camptothecin analogs (Camptosar and Hycamtin); cited from earlier work
[5] = Solubilities of DB-67 in various solvent systems at 25° C. (excess drug, filtration, HPLC); type: physicochemical
Method: Solubilities of DB-67 or camptothecin in a given solvent system were determined by adding an amount of the drugs well in excess of its estimated solubility to 1-2 mL of the desired solvent in a 4-mL glass vial. The capped vial was rotated in a VWR2010 incubator set at 25° C. for a period of 3-15 days. The sample was then passed through a 0.45 μm filter, except for liposome or emulsion samples, which were passed through a 1.2 μm filter. The collected sample was weighed, diluted with methanol, and analyzed by HPLC. The HPLC system consisted of a Discovery C18 15 cm×4.6 mm column and a Discovery C18 2 cm×4.6 mm 5 μm guard column (Supelco), a Beckman 110B solvent delivery module, a Rheodyne M7125 injector with a […] (Rainin), a Waters M2487 Dual λ Absorbance detector set at 254 nm, an HP 3392A integrator, and a mobile phase of 25% and 41% (v/v) acetonitrile in 2% (w/v) triethylamine acetate for camptothecin and DB-67, respectively.
The solubility-pH profile for DB-67 in aqueous solution is presented in FIG. 2, where the curve is a […] using an equilibrium model for the base-catalyzed lactone-ring opening and ionization of substituents in DB-67 (10-OH and the —COOH when the lactone-ring is opened at a basic pH).

[6] = Reaction kinetics of lactone-ring opening and closing (hydrolysis) in aqueous solution by HPLC; type: physicochemical
Method: The reaction kinetics for the E-ring opened and closed DB-67 were investigated in aqueous solutions at pH 7.4 and 4.0, respectively. The reactions were thermostated at 25±0.1° C. by a circulation water bath and initiated by adding 0.1 mL of reactants (Species I DB-67 in DMSO or Species II DB-67 in 2 mM NaOH; see FIG. 1) to a 30 mM phosphate or acetate buffer solution with an initial reactant concentration of 2-4×10^−6 M. After the addition and at different time intervals, aliquots of the reaction solutions were withdrawn and immediately assayed by HPLC. The concentrations of both species I and II were monitored in order to evaluate the mass balance and other possible degradation products. Simultaneous non-linear least-squares fits of the kinetic profiles yield the first-order rate constants for the lactone-ring opening and closing processes of kopen=1.1±0.1×10^−4 s^−1 and kclose=3.3±0.3×10^−4 s^−1.
We have also investigated the hydrolysis processes for the lactone-ring intact DB-67 (Species I) at pH 7.4 in the presence of 20% (w/v) SBE-CD and HP-CD, respectively. […] The fitted rate constants are kopen=(7.1±0.1)×10^−5s^−1 and kopen=(6.2±0.1)×10^−5s^−1 for 20% (w/v) SBE-CD and HP-CD, respectively. As noted above, the presence of 20% (w/v) SBE-CD or HP-CD reduces the rate for the lactone-ring opening process by 1.6- and 1.8-fold, respectively. The rate reduction is therefore more marked in the presence of HP-CD.

[7] = HP-CD, E-ring closed DB-67, pH below 4.6, 30 mM citrate buffer, fit to Equation 1

CC[C@@]1(O)C(=O)OCc2c1cc1n(c2=O)Cc2c-1nc1ccc(O)cc1c2[Si](C)(C)C(C)(C)C [DB-67, 7-t-butyldimethylsilyl-10-hydroxycamptothecin]
overall DB-67 concentration in the solution over time ([1]; 2 mg/mL DB-67, 1:9 dilution of alkaline solution into 20% (w/v) acidic SBE-CD, pH 4.4): remained constant over an extended period of three days | time for conversion to E-ring closed DB-67 to be nearly complete ([1]; 20% (w/v) SBE-CD, measured solution pH 4.4): ≤ 100 min | precipitation on mechanical mixing of DB-67 in DMSO with 20% (w/v) SBE-CD ([1]; lactone-intact DB-67 in DMSO diluted into 20% (w/v) SBE-CD aqueous solution, final concentration >1 mg/mL (2 mg/mL, 1:9, 0.10 mL/min)): precipitation occurs immediately; also recorded: precipitation occurred even during the mixing process and continued after the finish of mixing | loss of DB-67 during the preparation process ([1]; stable solutions prepared by the present method): < 2% | DB-67 bound to SBE-CD ([2]; 20% (w/v) SBE-CD, predominantly 1:1 complexes): more than 99.8% | 1:1 complex formation constant Kf^1:1 ([2]; SBE-CD, neutral E-ring intact DB-67, pH below 4.6, 30 mM citrate buffer, linear fit r^2=0.999): 8.5±0.2×10^3 M^−1 | DB-67 included in the CD hydrophobic cavity ([3]; 20% (w/v) HP-CD): more than 99.9% | complexes in the form of 1:2 complexes ([3]; 20% (w/v) HP-CD): roughly 46% | 1:1 complex formation constant Kf^1:1 [3, 7]: 5.8±0.2×10^3 M^−1 | 1:2 complex formation constant (printed as Kf^1:1) [3, 7]: 3.8±0.2 ×10^4 M^−1 | potency in in vitro cytotoxicity assays [4]: comparable potency to other FDA approved camptothecin analogs | S (solubility) ([5]; 5% Cremophor, 5% (v/v) in 5% (w/v) Dextrose/Water, 25° C., single sample): 200 µg/mL | S (solubility) ([5]; 10% (v/v) PEG-400/water, 25° C.): (3.3 ± 0.5) × 10^−2 mg/mL | S (solubility) ([5]; 40% (w/v) HPCD/water, 25° C.): (4.9 ± 0.2) × 10^−1 mg/mL | S (solubility) ([5]; 40% (w/v) SBE-CD/water/1 mM HCl, 25° C.): (2.09 ± 0.04) × 10^−1 mg/mL | S (solubility) ([5]; 40% PG, 10% (v/v) EtOH/water, 25° C.): (1.73 ± 0.04) × 10^−1 mg/mL | S (solubility) ([5]; 50% (v/v) PEG-400/water, 25° C.): (2.0 ± 0.3) × 10^−1 mg/mL | S (solubility) ([5]; 50% Cremophor, 50% (v/v) EtOH (Diluent-12), 25° C.): (7.5 ± 0.2) × 10^0 mg/mL | S (solubility) ([5]; Emulsion (20% soybean oil, 2% glycerin, 73% water, 4% Tween80, 1% eggPC), 25° C.): (2.06 ± 0.05) × 10^−1 mg/mL | S (solubility) ([5]; Liposome (70:25:5 (mole) DMPC:Chol:DMPG), 25° C.): (7.4 ± 0.3) × 10^−3 mg/mL | S (solubility) ([5]; Water/30 mM acetate buffer at pH 5.23, 25° C.): (1.11 ± 0.00) × 10^−5 mg/mL | S (solubility) ([5]; Water/0.5 M carbonate buffer at pH 10.20, 25° C., single sample): 178 µg/mL | solubility in an aqueous solution of acidic pH ([5]; pH 5.2, DB-67 mostly in E-ring intact form): 0.11 μg/mL | solubility in an aqueous solution ([5]; pH >10.2, mostly lactone-ring opened form): ~18000 µg/mL (≈ 37.6 mM) | reduction in the observed rate constant ([6]; 20% (w/v) HP-CD, pH 7.4): approximately 44% | reduction of the rate for the lactone-ring opening process ([6]; 20% (w/v) HP-CD, pH 7.4): 1.8 fold | reduction of the rate for the lactone-ring opening process ([6]; 20% (w/v) SBE-CD, pH 7.4): 1.6 fold | first-order rate constant for lactone-ring closing kclose ([6]; pH 4.0, 30 mM buffer, 25° C., no cyclodextrin): 3.3±0.3×10^−4 s^−1 | first-order rate constant for lactone-ring opening kopen ([6]; pH 7.4, 30 mM buffer, 25° C., no cyclodextrin): 1.1±0.1×10^−4 s^−1 | rate constant kopen ([6]; pH 7.4, in the presence of 20% (w/v) HP-CD): (6.2±0.1)×10^−5 s^−1 | rate constant kopen ([6]; pH 7.4, in the presence of 20% (w/v) SBE-CD): (7.1±0.1)×10^−5 s^−1
